Entries after “also recorded” stand apart in the source; their conditions may differ. Positions of bridges follow the written chain, without caps; N, C: chain ends. Non-standard residues stand in square brackets, D forms with d. Residues, ends and D or L forms follow the SMILES beside them. Pro(cis-4-Trz(4-CH2CH2Ph)) = O=C(O)[C@@H]1C[C@H](n2cc(CCc3ccccc3)nn2)CN1
Assays:
HIV-1 gp120 = molecular target: T1, HIV-1 gp120 (Human immunodeficiency virus type 1 group M subtype B, UniProt P35961); type: binding; conditions: for Dual receptor site (CD4 and 17b) inhibition of gp120, in words: SPR competition
T1 construct: Expression and Purification of Wild-Type gp120YU-2; made in house; host or cells: HEK 293F
Procedure: SPR competition binding assays were used to assess the structural elements required for cyclic hexapeptide binding to gp120. […] In an attempt to restore the lost contact, the length of the two linkers was changed (Linker 1 and Linker 2 in FIG. 12).
SPR experiments were performed on a Biacore 3000 optical biosensor (GE Healthcare). All experiments were carried out at 25° C. using standard PBS buffer pH=7.4 with 0.005% surfactant Tween. A CM5 sensor chip was derivatized by standard 1-ethyl-3-(3-dimethylaminopropyl) carbodiimide (EDC)/N-hydroxysuccinimide (NHS) chemistry, and coupling was done through ligand amine groups. Antibody 2B6R (α-human IL5R) was immobilized for negative control surfaces. For competition experiments, soluble four domain CD4 and 17b antibody were immobilized on the surface through standard EDC/NHS chemistry. For kinetic analyses, typically 2000-3000 RUs of protein reagents were immobilized on SPR chips, and analytes were passed over the surface at 50-100 μL/min. Surface regeneration was achieved by a 5 μL injection of 10 mM HCl solution at 100 μL/min. […] Regeneration of the surface was achieved by a single 10 second pulse of 1.3 M NaCl/35 mM NaOH and single 5-second pulse of 10 mM glycine, pH 1.5, for sCD4 and mAb 17b, respectively. All analyses were performed in triplicate.
The inhibition curve was converted into a calibration curve by the use of a fitting function. The fitting was done using the 4-parameter Equation (1) from BIAevaluation software,
The cyclic peptides of the invention were tested against HIV-1 gp120 by SPR competition assays as described elsewhere herein. A mixture of the cyclic peptide/gp120 solutions was passed over SPR chip immobilized with CD4 and 17b separately. The competition assay evaluated the ability of each peptide to inhibit the binding between gp120 and both soluble CD4 and 17b antibody, a surrogate for co-receptor.

HIV-1 JR-FL pseudovirus = assay: Inhibition of HIV-1 infection against JR-FL (HOS.T4.R5 cells, luciferase); type: cell-based
[1] = molecular target: T2, Trypsin (from bovine pancreas) (Bos taurus, UniProt P00760); assay: In vitro proteolytic stability, trypsin; conditions: 5 h incubation, 37° C.
T2 sequence (P00760 24-246): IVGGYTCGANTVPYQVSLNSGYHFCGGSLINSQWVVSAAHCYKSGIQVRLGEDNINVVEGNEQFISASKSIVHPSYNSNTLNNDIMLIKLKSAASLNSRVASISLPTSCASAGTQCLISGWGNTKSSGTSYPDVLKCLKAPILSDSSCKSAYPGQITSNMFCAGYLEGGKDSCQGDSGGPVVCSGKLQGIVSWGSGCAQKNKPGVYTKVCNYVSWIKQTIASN

[2] = molecular target: Chymotrypsin (bovine pancreas) (Bos taurus, UniProt P00766); assay: In vitro proteolytic stability, chymotrypsin
HIV-1 Bal.01 pseudovirus = assay: Inhibition of HIV-1 infection against Bal.01 (HOS.T4.R5 cells, luciferase); type: cell-based
[3] = tested on: viruses pseudotyped with VSV-G; conditions: cited from earlier work
tissue explants model = conditions: concentrations up to 100 μM; cited from earlier work
[4] = tested on: HIV-1 subtype A, B and C isolates; conditions: read-out: IC50 range, neutralization of viral infection; cited from earlier work
monomeric gp120 = monomeric gp120 (Human immunodeficiency virus type 1 group M subtype B, UniProt P35961); conditions: read-out: KD, binding to monomeric gp120; cited from earlier work
S375H mutant of gp120 = S375H mutant of gp120 (Human immunodeficiency virus type 1 group M subtype B, UniProt P35961, S370H); assay: SPR competition with gp120 mutant S375H; type: binding, HIV-1
S375W mutant of gp120 = S375W mutant of gp120 (Human immunodeficiency virus type 1 group M subtype B, UniProt P35961, S370W); assay: SPR competition with gp120 mutant S375W; type: binding, HIV-1

CC[C@H](C)[C@@H]1NC(=O)[C@H](CC(N)=O)NC(=O)[C@@H](N)CC(=O)NCCCC[C@@H](C(N)=O)NC(=O)[C@H](Cc2c[nH]c3ccccc23)NC(=O)[C@@H]2C[C@H](n3cc(CCc4ccccc4)nn3)CN2C1=O [AAR029, (3S,6S,14S,17S,20S,24S,25aS)-3-((1H-indol-3-yl)methyl)-14-amino-17-(2-amino-2-oxoethyl)-20-((S)-sec-butyl)-1,4,12,15,18,21-hexaoxo-24-(4-phenethyl-1H-1,2,3-triazol-1-yl)tetracosahydro-1H-pyrrolo[2,1-f][1,4,7,10,13,18]hexaazacyclotricosine-6-carboxamide] (H-DNI[Pro(cis-4-Trz(4-CH2CH2Ph))]WK-NH2; lactam 1-6)
fold enhanced activity vs AAR029b (HIV-1 gp120): ~2 fold | fold more active than the linear analogue (HIV-1 gp120): > 200 fold | Dual receptor site (CD4 and 17b) inhibition of gp120, in words (HIV-1 gp120): dual inhibitors | Infection inhibition against JR-FL, in words (HIV-1 JR-FL pseudovirus): inhibiting activity | Resistance to trypsin, in words [1]: completely resistant | State after chymotrypsin treatment, in words ([2]; 30 min incubation, 37° C.): almost unchanged | Resistance to chymotrypsin, in words ([2]; 5 h incubation, 37° C.): completely resistant | Intactness after chymotrypsin digestion, in words ([2]; 40 h incubation, HPLC and ESI-MS): remained intact | Time the peptide remained stable ([2]; in the presence of trypsin and chymotrypsin, 37° C., pH 8.2): > 40 h | Infection inhibition against Bal.01, in words (HIV-1 Bal.01 pseudovirus): inhibiting activity

(S)-4-((S)-2-((S)-2-((2S,4S)-1-(L-arginyl-L-isoleucyl-L-asparaginyl-L-asparaginyl-L-alloisoleucyl)-4-(4-ferrocenyl-1H-1,2,3-triazol-1-yl)pyrrolidine-2-carboxamido)-3-(1H-indol-3-yl)propanamido)-3-hydroxypropanamido)-5-(((S)-1-(((S)-1-(((S)-1-amino-4-(methylthio)-1-oxobutan-2-yl)amino)-4-(methylthio)-1-oxobutan-2-yl)amino)-1-oxopropan-2-yl)amino)-5-oxopentanoic acid [HNG156]
Neutralization of VSV-G pseudotyped viruses, in words [3]: not | Toxicity in tissue explants model (tissue explants model): no detectable toxicity | IC50 [4]: 80 to 62500 nM | Kd (monomeric gp120): 7 nM

CC[C@H](C)[C@H](N)C(=O)N[C@H]1CCC(=O)NCCCC[C@@H](C(N)=O)NC(=O)[C@H](Cc2c[nH]c3ccccc23)NC(=O)[C@@H]2C[C@H](n3cc(CCc4ccccc4)nn3)CN2C(=O)[C@H]([C@@H](C)CC)NC(=O)[C@H](CC(N)=O)NC1=O [AAR024, (3S,6S,15S,18S,21S,25S,26aS)-3-((1H-indol-3-yl)methyl)-18-(2-amino-2-oxoethyl)-15-((2S,3S)-2-amino-3-methylpentanamido)-21-((S)-sec-butyl)-1,4,12,16,19,22-hexaoxo-25-(4-phenethyl-1H-1,2,3-triazol-1-yl)hexacosahydropyrrolo[2,1-f][1,4,7,10,13,19]hexaazacyclotetracosine-6-carboxamide] (H-IENI[Pro(cis-4-Trz(4-CH2CH2Ph))]WK-NH2; lactam 2-7)
fold more active than the linear analogue (HIV-1 gp120): > 40 fold | Dual receptor site (CD4 and 17b) inhibition of gp120, in words (HIV-1 gp120): retained the dual receptor site inhibitory signature of linear PTs; also recorded: dual inhibitors | Activity against S375H mutant of gp120 (S375H mutant of gp120): inactive | Activity against S375W mutant of gp120 (S375W mutant of gp120): inactive

From patent US10251931B2, “Cyclic peptides and methods using same” (priority 2014, dated 2019)
